Assay results from patent US20250129069A1, “TRIAZOLO WRN INHIBITORS” (Nimbus Wadjet, Inc., priority 2023, published 2025).
pEC50, pIC50: −log10 of the molar value. Read-outs that look alike come from different tables or passages of the source.

What was measured:
[1] = biological target: human Werner helicase (WRN, amino acids 517-1235 with L1074F point mutation) (Homo sapiens (Human), UniProt Q14191, L1074F); test: WRN (BV08) ADP-Glo assay; format: biochemical; details: human WRN (aa 517-1235, L1074F), read-out: ADP-Glo_hWRN_IC50
Chain of human Werner helicase (WRN, amino acids 517-1235 with L1074F point mutation) (Q14191 other isoform, or with tags, fused parts or gaps L1074F (already in the parent)): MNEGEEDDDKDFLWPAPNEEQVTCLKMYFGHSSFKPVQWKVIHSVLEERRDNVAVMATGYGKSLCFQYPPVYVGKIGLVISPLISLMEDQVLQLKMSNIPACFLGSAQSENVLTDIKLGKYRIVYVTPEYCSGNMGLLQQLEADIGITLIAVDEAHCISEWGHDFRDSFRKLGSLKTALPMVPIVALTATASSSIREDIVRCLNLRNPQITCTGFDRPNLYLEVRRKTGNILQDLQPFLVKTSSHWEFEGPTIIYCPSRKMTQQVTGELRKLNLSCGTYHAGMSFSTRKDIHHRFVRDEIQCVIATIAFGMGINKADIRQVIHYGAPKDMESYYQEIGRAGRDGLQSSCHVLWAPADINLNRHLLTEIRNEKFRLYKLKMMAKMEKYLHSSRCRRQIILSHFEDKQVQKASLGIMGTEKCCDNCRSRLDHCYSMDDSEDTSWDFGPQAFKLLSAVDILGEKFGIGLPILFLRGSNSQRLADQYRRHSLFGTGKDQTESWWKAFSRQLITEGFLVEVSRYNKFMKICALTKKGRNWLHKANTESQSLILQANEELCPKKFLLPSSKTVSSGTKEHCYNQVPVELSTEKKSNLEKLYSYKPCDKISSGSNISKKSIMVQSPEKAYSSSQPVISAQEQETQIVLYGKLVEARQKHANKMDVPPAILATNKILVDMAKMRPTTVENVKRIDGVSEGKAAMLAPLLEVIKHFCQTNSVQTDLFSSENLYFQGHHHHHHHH
In short: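 Untagged WRN 517-1235 (L1074F), Sf9/baculovirus-expressed, 0.15 nM, preincubated 15 min with compound, then 5 μM ATP and 0.1 nM annealed DNA duplex added; 60 min at 25 °C in Bicine pH 7.5, 1 mM MgCl2, 1% DMSO. ADP-Glo luminescence; % inhibition vs DMSO and 20 μM NSC-617145 controls, four-parameter IC50 fit.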

[2] = test system: p21 induction in HCT 116 cells; test: p21 induction in cells (In-Cell Western, p21/GAPDH ratio); format: cell-based; details: 24 h compound incubation, read-out: p21_EC50
In short: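 HCT 116 cells treated 24 h at 37° C with 11-point, 2-fold dilutions typically from 10 μM, in duplicate. Fixed cells co-stained for p21 (800 nm) and GAPDH (700 nm) by In-Cell Western. p21/GAPDH ratio normalised between DMSO and reference WRN inhibitor controls, and EC50 obtained by nonlinear regression.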

Structure (SMILES)	pIC50 [1]	pEC50 ([2]; Homo sapiens)	pEC50 [2]
CCc1c(N2CCN(C(=O)c3c(OC)ncc(C)c3O)[C@H]3CC[C@@H]32)c(=O)c2nn(-c3ccnc(OC)c3)nc2n1CC(=O)NC1CC2(CCC2)C1 [Compound I-93, 2-{5-ethyl-6-[(1S,6S)-5-(4-hydroxy-2-methoxy-5-methylpyridine-3-carbonyl)-2,5-diazabicyclo[4.2.0]octan-2-yl]-2-(2-methoxypyridin-4-yl)-7-oxo-2H,4H,7H-[1,2,3]triazolo[4,5-b]pyridin-4-yl}-N-{spiro[3.3]heptan-2-yl}acetamide]	7.30 to 8.30	≥ 6.30	–
CCc1c(N2CCN(C(=O)c3ncnc(C)c3O)[C@H]3CC[C@@H]32)c(=O)c2nn(-c3ccnc(OC)c3)nc2n1CC(=O)NC1CC2(CCC2)C1OC (stereo partly drawn) [Compound I-71, 2-{5-ethyl-6-[(1S,6S)-5-(5-hydroxy-6-methylpyrimidine-4-carbonyl)-2,5-diazabicyclo[4.2.0]octan-2-yl]-2-(2-methoxypyridin-4-yl)-7-oxo-2H,4H,7H-[1,2,3]triazolo[4,5-b]pyridin-4-yl}-N-{1-methoxyspiro[3.3]heptan-2-yl}acetamide]	6.30 to 7.00	< 5.30	–
CCc1c(N2CCN(C(=O)c3ncnc(C)c3O)[C@H]3CC[C@@H]32)c(=O)c2nn(-c3ccnc(C)c3)nc2n1CC(=O)Nc1ccc(C(F)(F)F)cc1Cl [Compound I-9, N-(2-chloro-4-(trifluoromethyl)phenyl)-2-(5-ethyl-6-((1S,6S)-5-(5-hydroxy-6-methylpyrimidine-4-carbonyl)-2,5-diazabicyclo[4.2.0]octan-2-yl)-2-(2-methylpyridin-4-yl)-7-oxo-2,7-dihydro-4H-[1,2,3]triazolo[4,5-b]pyridin-4-yl)acetamide]	7.30 to 8.30	≥ 6.30	–
CCc1c(N2CCN(C(=O)c3ncnc(C)c3O)[C@H]3CC[C@@H]32)c(=O)c2nn(C3=CC(C)OCC3)nc2n1CC(=O)NC12CC(C3CC3)(C1)C2 (stereo partly drawn) [Compound I-164, N-{3-cyclopropylbicyclo[1.1.1]pentan-1-yl}-2-{5-ethyl-6-[(1S,6S)-5-(5-hydroxy-6-methylpyrimidine-4-carbonyl)-2,5-diazabicyclo[4.2.0]octan-2-yl]-2-(6-methyl-3,6-dihydro-2H-pyran-4-yl)-7-oxo-2H,4H,7H-[1,2,3]triazolo[4,5-b]pyridin-4-yl}acetamide]	7.30 to 8.30	≥ 6.30	–
CCc1c(N2CCN(C(=O)c3ncnc(C)c3O)CC2)c(=O)c2nn(-c3ccnc(OC)c3)nc2n1CC(=O)NC1CC2(CCC2)C1 [Compound I-118, 2-{5-ethyl-6-[4-(5-hydroxy-6-methylpyrimidine-4-carbonyl)piperazin-1-yl]-2-(2-methoxypyridin-4-yl)-7-oxo-2H,4H,7H-[1,2,3]triazolo[4,5-b]pyridin-4-yl}-N-{spiro[3.3]heptan-2-yl}acetamide]	7.30 to 8.30	5.70 to 6.30	–
CCc1c(N2CCN(C(=O)c3c(O)ccc4ncoc34)CC2)c(=O)c2nn(-c3ccnc(OC)c3)nc2n1CC(=O)NC12CC(CC)(C1)C2 [Compound I-142, 2-{5-ethyl-6-[4-(6-hydroxy-1,3-benzoxazole-7-carbonyl)piperazin-1-yl]-2-(2-methoxypyridin-4-yl)-7-oxo-2H,4H,7H-[1,2,3]triazolo[4,5-b]pyridin-4-yl}-N-{3-ethylbicyclo[1.1.1]pentan-1-yl}acetamide]	7.30 to 8.30	≥ 6.30	–
CCc1c(N2CCN(C(=O)c3c(OC)ncc(C)c3O)[C@H]3CC[C@@H]32)c(=O)c2nn(-c3ccnc(OC)c3)nc2n1CC(=O)Nc1ccc(C(F)(F)F)cc1F [Compound I-102, 2-{5-ethyl-6-[(1S,6S)-5-(4-hydroxy-2-methoxy-5-methylpyridine-3-carbonyl)-2,5-diazabicyclo[4.2.0]octan-2-yl]-2-(2-methoxypyridin-4-yl)-7-oxo-2H,4H,7H-[1,2,3]triazolo[4,5-b]pyridin-4-yl}-N-[2-fluoro-4-(trifluoromethyl)phenyl]acetamide]	≥ 8.30	≥ 6.30	–
CCc1c(N2CCN(C(=O)c3ncnc(C)c3O)CC2)c(=O)c2nn(-c3cnn(C4CC4)c3)nc2n1CC(=O)Nc1ccc(C(F)(F)F)cc1Cl [Compound I-112, N-[2-chloro-4-(trifluoromethyl)phenyl]-2-[2-(1-cyclopropyl-1H-pyrazol-4-yl)-5-ethyl-6-[4-(5-hydroxy-6-methylpyrimidine-4-carbonyl)piperazin-1-yl]-7-oxo-2H,4H,7H-[1,2,3]triazolo[4,5-b]pyridin-4-yl]acetamide]	7.30 to 8.30	≥ 6.30	–
CCc1c(N2CCN(C(=O)c3ncnc(C)c3O)CC2)c(=O)c2nn(-c3ccccn3)nc2n1CC(=O)Nc1ccc(C(F)(F)F)cc1Cl [Compound I-127, N-[2-chloro-4-(trifluoromethyl)phenyl]-2-{5-ethyl-6-[4-(5-hydroxy-6-methylpyrimidine-4-carbonyl)piperazin-1-yl]-7-oxo-2-(pyridin-2-yl)-2H,4H,7H-[1,2,3]triazolo[4,5-b]pyridin-4-yl}acetamide]	≥ 8.30	≥ 6.30	–
CCc1c(N2CCN(C(=O)c3ncnc(C)c3O)[C@H]3CC[C@@H]32)c(=O)c2nn(-c3cnn(C4CC4)c3)nc2n1CC(=O)NC12CC(C3CC3)(C1)C2 [Compound I-46, 2-[2-(1-cyclopropyl-1H-pyrazol-4-yl)-5-ethyl-6-[(1S,6S)-5-(5-hydroxy-6-methylpyrimidine-4-carbonyl)-2,5-diazabicyclo[4.2.0]octan-2-yl]-7-oxo-2H,4H,7H-[1,2,3]triazolo[4,5-b]pyridin-4-yl]-N-{3-cyclopropylbicyclo[1.1.1]pentan-1-yl}acetamide]	7.30 to 8.30	≥ 6.30	–
CCc1c(N2CCN(C(=O)c3c(OC)ncc(C)c3O)CC2)c(=O)c2nn(-c3ccnc(OC)c3)nc2n1CC(=O)NC1CC2(C1)CC(C)(C)C2 [Compound I-105, N-{6,6-dimethylspiro[3.3]heptan-2-yl}-2-{5-ethyl-6-[4-(4-hydroxy-2-methoxy-5-methylpyridine-3-carbonyl)piperazin-1-yl]-2-(2-methoxypyridin-4-yl)-7-oxo-2H,4H,7H-[1,2,3]triazolo[4,5-b]pyridin-4-yl}acetamide]	7.30 to 8.30	< 5.30	–
CCc1c(N2CCN(C(=O)c3c(OC)ncc(C)c3O)CC2)c(=O)c2nn(-c3ccnc(OC)c3)nc2n1CC(=O)NC12CC(CC(F)F)(C1)C2 [Compound I-121, N-[3-(2,2-difluoroethyl)bicyclo[1.1.1]pentan-1-yl]-2-{5-ethyl-6-[4-(4-hydroxy-2-methoxy-5-methylpyridine-3-carbonyl)piperazin-1-yl]-2-(2-methoxypyridin-4-yl)-7-oxo-2H,4H,7H-[1,2,3]triazolo[4,5-b]pyridin-4-yl}acetamide]	7.30 to 8.30	5.70 to 6.30	–
CCc1c(N2CCN(C(=O)c3ncnc(C)c3O)[C@H]3CC[C@@H]32)c(=O)c2nn(C3=CCOCC3)nc2n1CC(=O)NC12CC(C3CC3)(C1)C2 [Compound I-31, N-{3-cyclopropylbicyclo[1.1.1]pentan-1-yl}-2-[2-(3,6-dihydro-2H-pyran-4-yl)-5-ethyl-6-[(1S,6S)-5-(5-hydroxy-6-methylpyrimidine-4-carbonyl)-2,5-diazabicyclo[4.2.0]octan-2-yl]-7-oxo-2H,4H,7H-[1,2,3]triazolo[4,5-b]pyridin-4-yl]acetamide]	7.30 to 8.30	–	≥ 6.30
CCc1c(N2CCN(C(=O)c3ncnc(C)c3O)[C@H]3CC[C@@H]32)c(=O)c2nn(-c3ccnc(OC)c3)nc2n1CC(=O)NC1CC2(CCC2)C1 [Compound I-21, 2-(5-ethyl-6-((1S,6S)-5-(5-hydroxy-6-methylpyrimidine-4-carbonyl)-2,5-diazabicyclo[4.2.0]octan-2-yl)-2-(2-methoxypyridin-4-yl)-7-oxo-2,7-dihydro-4H-[1,2,3]triazolo[4,5-b]pyridin-4-yl)-N-(spiro[3.3]heptan-2-yl)acetamide]	7.30 to 8.30	≥ 6.30	–
